How the values were obtained:
[1] = test system: Schoenoplectiella juncoides; assay: Herbicidal activity against Schoenoplectiella juncoides var. Hotarui Ohwi assessed as phytotoxic activity ratings (0- no effect to 5-complete killing rating scale) at 6.2 g/a measured after 3 weeks post compound treatment under green house conditions; assay type: functional
Oryza sativa [2] = assay: Phytotoxicity against transplanted Oryza sativa (rice) seedlings assessed as phytotoxic activity ratings (0- no effect to 5-complete killing rating scale) at 100 g/a measured after 3 weeks post compound treatment under green house conditions; assay type: organism-based; settings: in vivo, 504 h
Cyperus difformis [3] = assay: Herbicidal activity against Cyperus difformis assessed as phytotoxic activity ratings (0- no effect to 5-complete killing rating scale) at 6.2 g/a measured after 3 weeks post compound treatment under green house conditions; assay type: functional
Echinochloa oryzicola [4] = assay: Herbicidal activity against Echinochloa oryzicola assessed as phytotoxic activity ratings (0- no effect to 5-complete killing rating scale) at 6.2 g/a measured after 3 weeks post compound treatment under green house conditions; assay type: functional
Oryza sativa [5] = assay: Phytotoxicity against directly seeded Oryza sativa (rice) seedlings assessed as phytotoxic activity ratings (0- no effect to 5-complete killing rating scale) at 6.2 g/a measured after 3 weeks post compound treatment under green house conditions; assay type: organism-based; settings: in vivo, 504 h
Cyperus serotinus [6] = assay: Herbicidal activity against Cyperus serotinus assessed as phytotoxic activity ratings (0- no effect to 5-complete killing rating scale) at 3.1 g/a measured after 3 weeks post compound treatment under green house conditions; assay type: functional
Oryza sativa [7] = assay: Phytotoxicity against directly seeded Oryza sativa (rice) seedlings assessed as phytotoxic activity ratings (0- no effect to 5-complete killing rating scale) at 12.2 g/a measured after 3 weeks post compound treatment under green house conditions; assay type: organism-based; settings: in vivo, 504 h
Echinochloa oryzicola [8] = assay: Herbicidal activity against Echinochloa oryzicola assessed as phytotoxic activity ratings (0- no effect to 5-complete killing rating scale) at 100 g/a measured after 3 weeks post compound treatment under green house conditions; assay type: functional
Oryza sativa [9] = assay: Phytotoxicity against directly seeded Oryza sativa (rice) seedlings assessed as phytotoxic activity ratings (0- no effect to 5-complete killing rating scale) at 100 g/a measured after 3 weeks post compound treatment under green house conditions; assay type: organism-based; settings: in vivo, 504 h
Cyperus serotinus [10] = assay: Herbicidal activity against Cyperus serotinus assessed as phytotoxic activity ratings (0- no effect to 5-complete killing rating scale) at 100 g/a measured after 3 weeks post compound treatment under green house conditions; assay type: functional
Cyperus serotinus [11] = assay: Herbicidal activity against Cyperus serotinus assessed as phytotoxic activity ratings (0- no effect to 5-complete killing rating scale) at 3.1 to 100 g/a measured after 3 weeks post compound treatment under green house conditions; assay type: functional
Cyperus difformis [12] = assay: Herbicidal activity against Cyperus difformis assessed as phytotoxic activity ratings (0- no effect to 5-complete killing rating scale) at 50 g/a measured after 3 weeks post compound treatment under green house conditions; assay type: functional
Echinochloa oryzicola [13] = assay: Herbicidal activity against Echinochloa oryzicola assessed as phytotoxic activity ratings (0- no effect to 5-complete killing rating scale) at 50 g/a measured after 3 weeks post compound treatment under green house conditions; assay type: functional
[14] = test system: Schoenoplectiella juncoides; assay: Herbicidal activity against Schoenoplectiella juncoides var. Hotarui Ohwi assessed as phytotoxic activity ratings (0- no effect to 5-complete killing rating scale) at 3.1 g/a measured after 3 weeks post compound treatment under green house conditions; assay type: functional

| SMILES | Activity [1] [%] | Activity (Oryza sativa [2]) [%] | Activity (Cyperus difformis [3]) [%] | Activity (Echinochloa oryzicola [4]) [%] | Activity (Oryza sativa [5]) [%] | Activity (Cyperus serotinus [6]) [%] | Activity (Oryza sativa [7]) [%] | Activity (Echinochloa oryzicola [8]) [%] | Activity (Oryza sativa [9]) [%] | Activity (Cyperus serotinus [10]) [%] | Activity (Cyperus serotinus [11]) [%] | Activity (Cyperus difformis [12]) [%] | Activity (Echinochloa oryzicola [13]) [%] | Activity [14] [%] |
| --- | --- | --- | --- | --- | --- | --- | --- | --- | --- | --- | --- | --- | --- | --- |
| C[C@@H](NC(=O)Nc1ccccc1C(C)(C)C)c1ccccc1 | 80 | 0 | 80 | 80 | 80 | 80 | – | – | – | – | – | – | – | – |
| CC(C)c1ccccc1NC(=O)N[C@H](C)c1ccccc1 | 80 | 0 | 80 | 80 | – | 80 | 80 | – | – | – | – | – | – | – |
| CC(C)c1cccc(NC(=O)N[C@@H](C)c2ccccc2)c1 | – | 0 | – | – | – | – | – | 0 | 0 | 10 | 80 | 80 | – | – |
| Cc1ccc(NC(=O)NC(C)(C)c2ccccc2)cc1 [DAIMURON] | – | 0 | 80 | – | – | – | – | – | 10 | – | – | – | 80 | 80 |
